# Measured values reported in patent US20260297070A1, “CYCLIC [COMPOUND LEFT OUT] WRN INHIBITORS” (Nimbus Wadjet, Inc., priority 2023, published 2026).
# Target: T1, human Werner helicase (WRN-BV08, Uniprot Q14191, amino acids 517-1235 with L1074F point mutation) (Homo sapiens, UniProt Q14191, L1074F)
# T1 construct: Uniprot Q14191, amino acids 517-1235 with L1074F point mutation; TEV-cleavable 8×His (C, cleaved yes); made in house; host or cells: Sf9 insect cells (baculovirus)
# Experiment: WRN (BV08) ADP-Glo Assay
# Type: biochemical
# Details: 0.15 nM WRN, 5 μM ATP, 0.1 nM DNA duplex, 15 min preincubation, 60 min at 25° C., pH 7.5, 1% DMSO; read-out: ADP-Glo_hWRN_IC50
# Procedure, shortened: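 0.15 nM WRN (aa 517-1235, L1074F, Sf9-expressed, tag cleaved) preincubated 15 min at 25 °C with compound, then 5 μM ATP and 0.1 nM DNA duplex added for 60 min. Buffer: 20 mM Bicine pH 7.5, 1 mM MgCl2, 10 mM KCl, 1 mM TCEP; 1% DMSO. ADP-Glo luminescence; IC50 by 4-parameter fit.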
# T1 sequence (Q14191 with tags, fused parts or gaps L1074F limits assumed): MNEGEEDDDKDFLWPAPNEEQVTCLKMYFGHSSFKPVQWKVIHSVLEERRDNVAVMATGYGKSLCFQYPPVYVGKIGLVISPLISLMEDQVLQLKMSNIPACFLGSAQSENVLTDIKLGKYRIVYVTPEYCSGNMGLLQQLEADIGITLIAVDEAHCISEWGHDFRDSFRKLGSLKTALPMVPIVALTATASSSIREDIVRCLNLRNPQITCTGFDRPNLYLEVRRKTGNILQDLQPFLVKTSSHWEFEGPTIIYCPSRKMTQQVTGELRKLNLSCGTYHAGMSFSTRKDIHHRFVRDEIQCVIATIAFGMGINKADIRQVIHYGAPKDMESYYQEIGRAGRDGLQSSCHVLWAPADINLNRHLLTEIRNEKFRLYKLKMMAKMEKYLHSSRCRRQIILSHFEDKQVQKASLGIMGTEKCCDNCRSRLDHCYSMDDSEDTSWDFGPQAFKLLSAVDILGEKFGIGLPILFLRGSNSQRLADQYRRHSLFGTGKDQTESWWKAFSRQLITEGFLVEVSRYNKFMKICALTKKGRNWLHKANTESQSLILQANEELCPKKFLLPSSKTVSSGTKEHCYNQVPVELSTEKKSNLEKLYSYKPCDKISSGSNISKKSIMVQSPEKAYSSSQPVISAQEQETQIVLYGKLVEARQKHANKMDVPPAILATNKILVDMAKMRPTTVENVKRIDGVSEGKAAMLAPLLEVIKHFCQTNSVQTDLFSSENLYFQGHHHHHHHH
row,Structure (SMILES),IC50
1,"O=C(CCc1cc2ccccc2[nH]1)N(Cc1ccncc1)C1C=CS(=O)(=O)C1 (stereo not drawn) [I-396, N-(1,1-dioxo-2,3-dihydro-1lambda6-thiophen-3-yl)-3-(1H-indol-2-yl)-N-[(pyridin-4-yl)methyl]propanamide]",> 50 µM
2,"O=C(Cc1ccc(-c2nnco2)cc1)N(Cc1ccncc1)C1C=CS(=O)(=O)C1 (stereo not drawn) [I-558, N-(1,1-dioxo-2,3-dihydro-1lambda6-thiophen-3-yl)-2-[4-(1,3,4-oxadiazol-2-yl)phenyl]-N-[(pyridin-4-yl)methyl]acetamide]",> 50 µM
3,"CC(C)c1ccc(CC(=O)N(Cc2ccncc2)C2C=CS(=O)(=O)C2)cc1 (stereo not drawn) [I-197, N-(1,1-dioxo-2,3-dihydro-1lambda6-thiophen-3-yl)-2-[4-(propan-2-yl)phenyl]-N-[(pyridin-4-yl)methyl]acetamide]",0.5 to 5 µM
4,"O=C(O)c1ccc(CN(C(=O)Cc2ccc(-n3cccc3)cc2)C2C=CS(=O)(=O)C2)cc1 (stereo not drawn) [I-275, 4-{[N-(1,1-dioxo-2,3-dihydro-1lambda6-thiophen-3-yl)-2-[4-(1H-pyrrol-1-yl)phenyl]acetamido]methyl}benzoic acid]",10 to 50 µM
5,"O=C(Cc1ccc(-n2cccc2)cc1)N(Cc1c(F)cccc1F)C1C=CS(=O)(=O)C1 (stereo not drawn) [I-294, N-[(2,6-difluorophenyl)methyl]-N-(1,1-dioxo-2,3-dihydro-1lambda6-thiophen-3-yl)-2-[4-(1H-pyrrol-1-yl)phenyl]acetamide]",10 to 50 µM
6,"O=C(Cc1ccc(N2CC(F)(F)C2)cc1)N(Cc1ccncc1)C1C=CS(=O)(=O)C1 (stereo not drawn) [I-482, 2-[4-(3,3-difluoroazetidin-1-yl)phenyl]-N-(1,1-dioxo-2,3-dihydro-1lambda6-thiophen-3-yl)-N-[(pyridin-4-yl)methyl]acetamide]",> 50 µM
7,"O=C(Cc1ccc(-n2cccc2)cc1)N(Cc1ccncc1)C1C=CS(=O)(=O)C1 (single isomer, unassigned) [I-490]",> 50 µM
8,"COc1cccc(CN(C(=O)Cc2ccc(-n3cccc3)cc2)C2C=CS(=O)(=O)C2)c1 (stereo not drawn) [I-234, N-(1,1-dioxo-2,3-dihydro-1lambda6-thiophen-3-yl)-N-[(3-methoxyphenyl)methyl]-2-[4-(1H-pyrrol-1-yl)phenyl]acetamide]",5 to 10 µM
9,"CN(CC(C(=O)N(Cc1ccncc1)C1C=CS(=O)(=O)C1)c1ccc(-c2ccc(F)cc2)cc1)S(C)(=O)=O (stereo not drawn) [I-458, N-(1,1-dioxo-2,3-dihydro-1lambda6-thiophen-3-yl)-2-{4′-fluoro-[1,1′-biphenyl]-4-yl}-3-(N-methylmethanesulfonamido)-N-[(pyridin-4-yl)methyl]propanamide]",> 50 µM
10,"O=C(Cc1ccc(-n2cccc2)cc1)N(Cc1ncccn1)C1C=CS(=O)(=O)C1 (stereo not drawn) [I-483, N-(1,1-dioxo-2,3-dihydro-1lambda6-thiophen-3-yl)-N-[(pyrimidin-2-yl)methyl]-2-[4-(1H-pyrrol-1-yl)phenyl]acetamide]",> 50 µM
11,"NC(=O)c1cccc(CN(C(=O)Cc2ccc(-n3cccc3)cc2)C2C=CS(=O)(=O)C2)c1 (stereo not drawn) [I-318, 3-{[N-(1,1-dioxo-2,3-dihydro-1lambda6-thiophen-3-yl)-2-[4-(1H-pyrrol-1-yl)phenyl]acetamido]methyl}benzamide]",10 to 50 µM
12,"O=C(Cc1ccc(-n2cccc2)cc1)N(Cc1cnc2ccccc2c1)C1C=CS(=O)(=O)C1 (stereo not drawn) [I-296, N-(1,1-dioxo-2,3-dihydro-1lambda6-thiophen-3-yl)-2-[4-(1H-pyrrol-1-yl)phenyl]-N-[(quinolin-3-yl)methyl]acetamide]",10 to 50 µM
13,"O=C(Cc1c[nH]c2cc(Cl)ccc12)N(Cc1ccncc1)C1C=CS(=O)(=O)C1 (stereo not drawn) [I-417, 2-(6-chloro-1H-indol-3-yl)-N-(1,1-dioxo-2,3-dihydro-1lambda6-thiophen-3-yl)-N-[(pyridin-4-yl)methyl]acetamide]",> 50 µM
14,"O=C(O)c1cccc(CN(C(=O)Cc2ccc(-n3cccc3)cc2)C2C=CS(=O)(=O)C2)c1 (stereo not drawn) [I-352, 3-{[N-(1,1-dioxo-2,3-dihydro-1lambda6-thiophen-3-yl)-2-[4-(1H-pyrrol-1-yl)phenyl]acetamido]methyl}benzoic acid]",10 to 50 µM
15,"O=C(Cc1csc(C2CCCC2)n1)N(Cc1ccncc1)C1C=CS(=O)(=O)C1 (stereo not drawn) [I-445, 2-(2-cyclopentyl-1,3-thiazol-4-yl)-N-(1,1-dioxo-2,3-dihydro-1lambda6-thiophen-3-yl)-N-[(pyridin-4-yl)methyl]acetamide]",> 50 µM
16,"O=C(CCc1nc2cc(Cl)ccc2s1)N(Cc1ccncc1)C1C=CS(=O)(=O)C1 (stereo not drawn) [I-391, 3-(5-chloro-1,3-benzothiazol-2-yl)-N-(1,1-dioxo-2,3-dihydro-1lambda6-thiophen-3-yl)-N-[(pyridin-4-yl)methyl]propanamide]",> 50 µM
17,"COc1ccc2[nH]c(CC(=O)N(Cc3ccncc3)C3C=CS(=O)(=O)C3)cc2c1 (stereo not drawn) [I-412, N-(1,1-dioxo-2,3-dihydro-1lambda6-thiophen-3-yl)-2-(5-methoxy-1H-indol-2-yl)-N-[(pyridin-4-yl)methyl]acetamide]",> 50 µM

# Other lines, results leading:
row,IC50,Structure (SMILES)
1,0.5 to 5 µM,"COc1cc(CN(C(=O)C(OCCS(C)(=O)=O)c2ccc(-c3ccc(F)c(F)c3)cc2F)[C@@H]2C=CS(=O)(=O)C2)ccn1 (stereo partly drawn) [I-707, N-[(3R)-1,1-dioxo-2,3-dihydro-1lambda6-thiophen-3-yl]-2-(2-methanesulfonylethoxy)-N-[(2-methoxypyridin-4-yl)methyl]-2-{3,3′,4′-trifluoro-[1,1′-biphenyl]-4-yl}acetamide]"
2,< 0.5 µM,"CC(C)(O)c1cc(CN(C(=O)Cn2cc3cc(C(F)(F)F)ccc3n2)C2C=CS(=O)(=O)C2)ccn1 (single isomer, unassigned) [I-676]"
3,> 50 µM,"COc1cc(CN(C(=O)Cc2ccc(C(F)(F)F)cc2)C2C=CS(=O)(=O)C2)ccn1 (single isomer, unassigned) [I-382]"
4,> 50 µM,"COc1cc(CN(C(=O)C(OCCS(C)(=O)=O)c2ccc(-c3ccc(F)c(F)c3)cc2F)[C@@H]2C=CS(=O)(=O)C2)ccn1 (single isomer, unassigned) [I-710, (2R*)-N-[(3R)-1,1-dioxo-2,3-dihydro-1lambda6-thiophen-3-yl]-2-(2-methanesulfonylethoxy)-N-[(2-methoxypyridin-4-yl)methyl]-2-{3,3′,4′-trifluoro-[1,1′-biphenyl]-4-yl}acetamide]"
5,< 0.5 µM,"CC(C)(O)c1cc(CN(C(=O)Cn2cc(-c3ccccc3)cn2)[C@@H]2C=CS(=O)(=O)C2)ccn1 [I-43, N-[(3R)-1,1-dioxo-2,3-dihydro-1lambda6-thiophen-3-yl]-N-{[2-(2-hydroxypropan-2-yl)pyridin-4-yl]methyl}-2-(4-phenyl-1H-pyrazol-1-yl)acetamide]"
6,0.5 to 5 µM,"CC(C)(O)c1cc(CN(C(=O)Cc2ccc(C(F)(F)F)cc2F)C2C=CS(=O)(=O)C2)ccn1 (stereo not drawn) [I-128, N-(1,1-dioxo-2,3-dihydro-1lambda6-thiophen-3-yl)-2-[2-fluoro-4-(trifluoromethyl)phenyl]-N-{[2-(2-hydroxypropan-2-yl)pyridin-4-yl]methyl}acetamide]"
7,0.5 to 5 µM,"COc1cc(CN(C(=O)Cn2cc3cc(C(F)(F)F)ccc3n2)[C@@H]2C=CS(=O)(=O)C2)ccn1 [I-699, N-[(3R)-1,1-dioxo-2,3-dihydro-1lambda6-thiophen-3-yl]-N-[(2-methoxypyridin-4-yl)methyl]-2-[5-(trifluoromethyl)-2H-indazol-2-yl]acetamide]"
8,0.5 to 5 µM,"COc1cc(CN(C(=O)C(c2ccc(-c3ccc(F)c(F)c3)cc2F)n2cc(C#N)cn2)[C@@H]2C=CS(=O)(=O)C2)ccn1 (stereo partly drawn) [I-706, 2-(4-cyano-1H-pyrazol-1-yl)-N-[(3R)-1,1-dioxo-2,3-dihydro-1lambda6-thiophen-3-yl]-N-[(2-methoxypyridin-4-yl)methyl]-2-{3,3′,4′-trifluoro-[1,1′-biphenyl]-4-yl}acetamide]"
9,< 0.5 µM,"CN(C)C(=O)C(C(=O)N(Cc1nc(C2CC2)cs1)C1C=CS(=O)(=O)C1)c1ccc(-c2ccc(F)cc2)cc1F (stereo not drawn) [I-23, N′-[(4-cyclopropyl-1,3-thiazol-2-yl)methyl]-2-{3,4′-difluoro-[1,1′-biphenyl]-4-yl}-N′-(1,1-dioxo-2,3-dihydro-1lambda6-thiophen-3-yl)-N,N-dimethylpropanediamide]"
10,> 50 µM,"COc1cc(CN(C(=O)C(c2ccc(-c3ccc(F)c(F)c3)cc2F)n2cc(C(F)F)cn2)[C@@H]2C=CS(=O)(=O)C2)ccn1 (single isomer, unassigned) [I-711, (2R*)-2-[4-(difluoromethyl)-1H-pyrazol-1-yl]-N-[(3R)-1,1-dioxo-2,3-dihydro-1lambda6-thiophen-3-yl]-N-[(2-methoxypyridin-4-yl)methyl]-2-{3,3′,4′-trifluoro-[1,1′-biphenyl]-4-yl}acetamide]"
11,0.5 to 5 µM,"COCC(C(=O)N(Cc1ccnc(C(C)(C)O)c1)C1C=CS(=O)(=O)C1)c1ccc(-c2ccc(F)c(F)c2)cc1F (stereo not drawn) [I-195, N-(1,1-dioxo-2,3-dihydro-1lambda6-thiophen-3-yl)-N-{[2-(2-hydroxypropan-2-yl)pyridin-4-yl]methyl}-3-methoxy-2-{3,3′,4′-trifluoro-[1,1′-biphenyl]-4-yl}propanamide]"
12,< 0.5 µM,"O=C(Cn1cc(-c2cc(F)c(F)c(F)c2)cn1)N(Cc1ccc(OCc2ccncc2)cc1)C1C=CS(=O)(=O)C1 (stereo not drawn) [I-783, N-(1,1-dioxo-2,3-dihydro-1lambda6-thiophen-3-yl)-N-({4-[(pyridin-4-yl)methoxy]phenyl}methyl)-2-[4-(3,4,5-trifluorophenyl)-1H-pyrazol-1-yl]acetamide]"
13,< 0.5 µM,"CC(C)(O)c1cc(CN(C(=O)C(OC2CC2)c2ccc(-c3ccc(F)c(F)c3)cc2F)[C@@H]2C=CS(=O)(=O)C2)ccn1 (single isomer, unassigned) [I-681]"
